According to ChEMBL document CHEMBL5537117, “Novel 3-hydroxypyridin-4(1H)-One derivatives as ferroptosis inhibitors with iron-chelating and reactive oxygen species scavenging activities and therapeutic effect in cisplatin-induced cytotoxicity” (Eur J Med Chem, 2024):
Activity calls are given as the source filed them. The calls are words filed in the database; no cut-off is given here.

Assays:
[1] = Antioxidant activity assessed as ABTS radical scavenging activity incubated in dark for 6 mins by absorbance based microplate reader analysis; format: functional
[2] = Antioxidant activity assessed as trolox equivalent of ORAC radical scavenging activity at 8 uM; format: functional
[3] = Antioxidant activity assessed as trolox equivalent of ORAC radical scavenging activity at 4 uM; format: functional
[4] = test system: HT-22; assay: Anti-ferroptotic activity in erastin-induced ferroptosis in mouse HT-22 cells assessed as cell viability incubated for 24 hrs by MTT assay; format: functional, cell-based; details: HT-22, 24 h
[5] = test system: HT-22; assay: Anti-ferroptotic activity against Erastin-induced ferroptosis in mouse HT-22 cells assessed as reduction in LIP level by measuring fluorescence intensity measured after 24 hrs by FeRhoNox-1 based flow cytometry analysis; format: functional, cell-based; details: dose 20-100 µM
[6] = test system: HT-22; assay: Anti-ferroptotic activity against Erastin-induced ferroptosis in mouse HT-22 cells assessed as inhibition of LPO accumulation at 0.2 uM measured after 24 hrs by BODIPY-C11 based flow cytometry analysis relative to control; format: functional; design: scale not given: the % may be the effect or the level left
[7] = test system: HEK-293T; assay: Protection against cisplatin-induced cytotoxicity in HEK293T cells assessed as cell viability measured after 24 to 48 hrs by MTT assay; format: functional, cell-based; details: Homo sapiens
[8] = AUC (0 to infinity) in rat at 5 mg/kg, iv measured upto 24 hrs by UPLC-MS analysis; format: ADME, organism-based; details: in vivo
[9] = test system: HT-22; assay: Cytotoxicity against mouse HT-22 cells assessed as reduction in cell viability at 150 uM by MTT assay relative to control; format: toxicity, cell-based; details: ht-22, 150 µM
[10] = test system: HT-22; assay: Anti-ferroptotic activity against Erastin-induced ferroptosis in mouse HT-22 cells assessed as reduction in ROS accumulation measured after 24 hrs by DCFH-DA based flow cytometry analysis; format: functional, cell-based; details: dose 20-100 µM
[11] = test system: HT-22; assay: Anti-ferroptotic activity against Erastin-induced ferroptosis in mouse HT-22 cells assessed as reduction in LPO accumulation measured after 24 hrs by BODIPY-C11 based flow cytometry analysis; format: functional, cell-based; details: dose 20-100 µM
[12] = test system: HEK-293T; assay: Protection against cisplatin-induced cytotoxicity in HEK293T cells assessed as reduction in attenuation of intracellular Fe2+ at 30 to 80 uM measured after 24 hrs by FeRhoNox-1 based flow cytometry analysis; format: functional, cell-based; details: Homo sapiens, dose 30-80 µM
[13] = test system: HEK-293T; assay: Protection against cisplatin-induced cytotoxicity in HEK293T cells assessed as reduction in ROS accumulation at 50 uM measured after 24 hrs by DCFH-DA based flow cytometry analysis; format: functional, cell-based; details: Homo sapiens
[14] = test system: HEK-293T; assay: Protection against cisplatin-induced cytotoxicity in HEK293T cells assessed as reduction in LPO accumulation at 50 uM measured after 24 hrs by BODIPY-C11 based flow cytometry analysis; format: functional, cell-based; details: Homo sapiens
[15] = AUC (0 to t) in rat at 5 mg/kg, iv measured upto 24 hrs by UPLC-MS analysis; format: ADME, organism-based; details: in vivo
[16] = AUC (0 to t) in rat at 15 mg/kg, IG measured upto 24 hrs by UPLC-MS analysis; format: ADME, organism-based; details: in vivo, po
[17] = AUC (0 to infinity) in rat at 15 mg/kg, IG measured upto 24 hrs by UPLC-MS analysis; format: ADME, organism-based; details: in vivo, po
[18] = MRT (0 to infinity) in rat at 5 mg/kg, iv measured upto 24 hrs by UPLC-MS analysis; format: ADME, organism-based; details: in vivo
[19] = MRT (0 to infinity) in rat at 15 mg/kg, IG measured upto 24 hrs by UPLC-MS analysis; format: ADME, organism-based; details: in vivo, po
[20] = Half life in rat at 5 mg/kg, iv measured upto 24 hrs by UPLC-MS analysis; format: ADME, organism-based; details: in vivo
[21] = Half life in rat at 15 mg/kg, IG measured upto 24 hrs by UPLC-MS analysis; format: ADME, organism-based; details: in vivo, po
[22] = Clearance in rat at 5 mg/kg, iv measured upto 24 hrs by UPLC-MS analysis; format: ADME, organism-based; details: in vivo
[23] = Clearance in rat at 15 mg/kg, IG measured upto 24 hrs by UPLC-MS analysis; format: ADME, organism-based; details: in vivo, po
[24] = Volume of distribution at steady state in rat at 5 mg/kg, iv measured upto 24 hrs by UPLC-MS analysis; format: ADME, organism-based; details: in vivo, read-out: Vdss
[25] = Volume of distribution at steady state in rat at 15 mg/kg, IG measured upto 24 hrs by UPLC-MS analysis; format: ADME, organism-based; details: in vivo, po
[26] = Cmax in rat at 5 mg/kg, iv measured upto 24 hrs by UPLC-MS analysis; format: ADME, organism-based; details: in vivo
[27] = Cmax in rat at 15 mg/kg, IG measured upto 24 hrs by UPLC-MS analysis; format: ADME, organism-based; details: in vivo, po
[28] = Tmax in rat at 5 mg/kg, iv measured upto 24 hrs by UPLC-MS analysis; format: ADME, organism-based; details: in vivo
[29] = Tmax in rat at 15 mg/kg, IG measured upto 24 hrs by UPLC-MS analysis; format: ADME, organism-based; details: in vivo, po
[30] = Oral bioavailability in rat at 15 mg/kg, IG measured upto 24 hrs by UPLC-MS analysis; format: ADME, organism-based; details: in vivo
[31] = Acid dissociation constant, pKa1 of the compound in 0.1M KCl at pH 2.0 to 10.5 by UV absorption method; format: physicochemical
[32] = Acid dissociation constant, pKa2 of the compound in 0.1M KCl at pH 2.0 to 10.5 by UV absorption method; format: physicochemical
[33] = Acid dissociation constant, pKa3 of the compound in 0.1M KCl at pH 2.0 to 10.5 by UV absorption method; format: physicochemical
[34] = Metal chelating activity assessed as Fe3+ chelation
[35] = Log K1 of the compound in 0.1M KCl at pH 0.9 to 2.1 by UV absorption method; format: physicochemical
[36] = Log K2 of the compound in 0.1M KCl at pH 2.0 to 10.5 by UV absorption method; format: physicochemical
[37] = Log K3 of the compound in 0.1M KCl at pH 2.0 to 10.5 by UV absorption method; format: physicochemical

## CCOC(=O)c1ccc(NC2CCCCC2)c(N)c1
[1]
  IC50: 6.27 µM
[2]
  Activity: 9.43
[3]
  Activity: 6.53
[4]
  EC50: 0.191 µM
[5]
  Activity: inactive
[6]
  Activity: 100%
[7]
  EC50: 5.69 µM

## Cc1c(O)c(=O)ccn1NC(=O)/C=C/c1cccc(F)c1
[1]
  IC50: 4.35 µM
[8]
  AUC: 365.99 ng·h/mL
[2]
  Activity: 36
[3]
  Activity: 23.8
[9]
  Activity: > 80%
[4]
  EC50: 14.9 µM
[5]
  Activity: Dose-Dependent Effect
[10]
  Activity: Dose-Dependent Effect
[11]
  Activity: Dose-Dependent Effect
[7]
  EC50: 24.9 µM
[12]
  Activity: Active
[13]
  Activity: Active
[14]
  Activity: Active
[15]
  AUC(0-t) at 24 h: 364 ng·h/mL
[16]
  AUC(0-t) at 24 h: 120 ng·h/mL
[17]
  AUC: 136.25 ng·h/mL
[18]
  MRT inf: 2.34 h
[19]
  MRT inf: 8.22 h
[20]
  half-life: 224 min
[21]
  half-life: 350 min
[22]
  CL: 0.02 L/h/kg
[23]
  CL: 0.14 L/h/kg
[24]
  Vd: 0.07 L/kg
[25]
  Vdss: 1.42 L/kg
[26]
  Cmax: 472 ng/mL
[27]
  Cmax: 24.1 ng/mL
[28]
  Tmax: 8.4 min
[29]
  Tmax: 11.4 min
[30]
  bioavailability: 8.06%
[31]
  pKa: 2.32
[32]
  pKa: 6.78
[33]
  pKa: 10.1
[34]
  Activity: 18.6
[35]
  log(activity): 14.67
[36]
  log(activity): 26.56
[37]
  log(activity): 36.22
